Reference: US11179363B2, “Non-steroidal selective glucocorticoid receptor agonistic modulators (SEGRAMs) and uses thereof” (ASSOCIATION POUR LA RECHERCHE À L'IGBMC (ARI), priority 2017, dated 2021)
Values belong to the compound of their own block, whether it stands above or below them.

Assays:
[1] = tested on: dorsal skin of Balb/C mice; assay: Skin epidermis atrophy after 8-day topical treatment of dorsal skin; format: in vivo
Source text: To investigate whether, similarly to Dex, a topical administration of CpdX could result in a skin atrophy, Balb/C mice were shaved on the dorsal skin. Ethanol (vehicle), Dex, CpdX or either one of its two enantiomers CpdX(eA) or CpdX(eB), as well as the deuterated form CpdX-D3 or either one of its two enantiomers CpdX-D3(eA) or CpdX-D3(eB), were topically applied onto the dorsal skin for 8 days.
Upon completion of the treatments, RNA transcripts were extracted from dorsal skin samples and the transcripts of Kindlin-1 and REDD1 genes were analyzed by q-RT-PCR. Histological and morphometric analyses of the dorsal skin were also performed.

[2] = tested on: mouse tibia cortical bone and femur trabecular bone; assay: Cortical and trabecular bone formation after three-month treatment (micro-CT, Wnt16 q-RT-PCR); format: in vivo, B6 male mice; settings: s.c. 1 mg/kg daily, three months
Experimental: (§1) B6 male mice (8-week-old) were daily subjected for three months to either a subcutaneous injection of vehicle (NaCl 0.9%), Dex, CpdX, CpdX(eA), CpdX(eB), CpdX-D3, CpdX-D3(eA) or CpdX-D3(eB) (1 mg/kg body weight, diluted in NaCl 0.9%).
From each animal included in the experiments, one femur and the ipsilateral tibia were dissected and preserved in 70% ethanol for further bone microstructure analysis by micro-CT. The FX Quantum micro-CT scanner (Perkin Elmer) was used to perform measurements at the distal femur and midshaft tibia. All scans were performed with an isotropic voxel size of 10 μm, 160 μA tube current and 90 kV tube voltage.
Morphological 3D measurements were performed using the CTAn software (Bruker). Cortical bone parameters, which were measured in the tibia midshaft, included measures of the bone volume fraction as compared to the total volume, cortical thickness, total area, bone area and marrow area. […] Trabecular bone parameters were measured in the distal metaphysis of the femurs and included bone volume fraction, trabecular thickness, trabecular number and trabecular spacing. […]
The statistical significance as compared to vehicle treatment was calculated through one-way ANOVA test followed by Dunn's multiple comparison test, *p<0.05; **p<0.01; ***p<0.001; ****p<0,0001.

[3] = Body weight and body composition after three-month treatment (pDEXA); format: in vivo, B6 male mice; settings: s.c. 1 mg/kg daily, 3 months
Experimental: B6 male mice (8-week-old) were daily subjected for three months to a subcutaneous injection of either vehicle (NaCl 0.9%), Dex, CpdX or CpdX-D3 (1 mg/kg body weight, diluted in vehicle. A pDEXA machine was used to determine the lean mass and fat mass. The statistical significance was calculated through Krustal-Walis test followed by a Dunn's multiple comparison test, *p<0.05; **p<0.01; ***p<0.001.

[4] = tested on: thymus, spleen, adrenal gland and kidney; assay: Organ weights (thymus, spleen, adrenal gland, kidney) after three-month treatment; format: in vivo, B6 male mice; settings: s.c. 1 mg/kg daily, three months
Experimental: as §1, with “to” for “to either”, “of either” for “of”, “vehicle). Following these treatments, four organs (thymus, spleen, adrenal gland and kidney) were harvested and weighted.” for “NaCl 0.9%).”

adrenal glands = assay: Corticosterone synthesis and adrenal gland after three-month treatment; format: in vivo, B6 male mice; settings: three months
Experimental: B6 male mice (8-week-old) were daily subjected for three months to either a subcutaneous injection of vehicle (NaCl 0.9%), Dex, CpdX, CpdX(eA), CpdX(eB), CpdX-D3, CpdX-D3(eA) or CpdX-D3(eB) (1 mg/kg body weight, diluted in vehicle).
Following this long-term treatment, blood was collected at 10 a.m. and 6 p.m. by retro-orbital puncture in lithium-heparin coated vials, and the plasmatic level of corticosterone was determined. Adrenal glands were harvested and weighted. RNA transcripts were extracted and transcripts of the Cyp11a, Cyp11b1, Cyp11b2 and HSD3β genes were analyzed by q-RT-PCR. Histological analyses of the adrenal glands were also carried out.

[5] = Blood glucose and intraperitoneal glucose tolerance test (IPGTT) after three-month treatment; format: in vivo, B6 male mice; settings: three months
Experimental: B6 male mice (8-week-old) were daily subjected for three months to a subcutaneous injection of either vehicle (NaCl 0.9%), Dex, CpdX, CpdX(eA), CpdX(eB), CpdX-D3, CpdX-D3(eA) or CpdX-D3(eB) (1 mg/kg body weight, diluted in vehicle). Mice were over-night-fasted. Mouse blood glucose concentration was measured before (To) and during two hours (T120) after glucose i.p. injection ([…]).

[6] = Blood insulin, intraperitoneal insulin tolerance test (IPITT) and liver western blot after three-month treatment; format: in vivo, B6 male mice; settings: three months
Experimental: B6 male mice (8-week-old) were subjected daily for three months to a subcutaneous injection of either vehicle (NaCl 0.9%), Dex, CpdX, CpdX(eA), CpdX(eB), CpdX-D3, CpdX-D3(eA) or CpdX-D3(eB) (1 mg/kg body weight, diluted in vehicle). After three months, the blood was collected at 10 a.m. by retro-orbital puncture in lithium-heparin coated vials, and the plasmatic level of insulin was determined.
For the intraperitoneal insulin tolerance test (IPITT), mice were fasted for 6 hours before test. The blood glucose concentration was measured both before (To) and during a one-hour period after insulin i.p. injection (0.75 U/kg body weight).
Following this three-month treatment, liver samples were harvested and lysed in the RIPA buffer (20 mM Tris pH 8, 150 mM NaCl, 10% glycerol, 1% NP-40 and 2 mM EDTA). Antibodies from Cell Signaling were used to assess by Western-Blotting the relative level of p-IRS1 (S318), IRS-1, p-AKT (S473) and AKT.

liver = assay: Fatty liver after three-month treatment (red oil staining, q-RT-PCR, plasma cholesterol and bile acids); format: in vivo, B6 male mice; settings: three months
Experimental: B6 male mice (8-week-old) were daily subjected for three months to a subcutaneous injection of either vehicle (NaCl 0.9%), Dex, CpdX, CpdX(eA), CpdX(eB), CpdX-D3, CpdX-D3(eA) or CpdX-D3(eB) (1 mg/kg body weight, diluted in vehicle). Following this treatment, blood was collected at 10 a.m. by retro-orbital puncture in lithium-heparin coated vials. The plasmatic levels of total cholesterol and bile acids were determined.
Liver samples were harvested. […] RNA transcripts were extracted from liver samples and the transcripts of fatty acid synthase (FASN) and Stearoyl-CoA desaturase 1 (SCD1) genes were analyzed by q-RT-PCR.

GR [7] = biological target: T1, GR (Homo sapiens, UniProt P04150); settings: cited from earlier work
T1 sequence (P04150 1-777): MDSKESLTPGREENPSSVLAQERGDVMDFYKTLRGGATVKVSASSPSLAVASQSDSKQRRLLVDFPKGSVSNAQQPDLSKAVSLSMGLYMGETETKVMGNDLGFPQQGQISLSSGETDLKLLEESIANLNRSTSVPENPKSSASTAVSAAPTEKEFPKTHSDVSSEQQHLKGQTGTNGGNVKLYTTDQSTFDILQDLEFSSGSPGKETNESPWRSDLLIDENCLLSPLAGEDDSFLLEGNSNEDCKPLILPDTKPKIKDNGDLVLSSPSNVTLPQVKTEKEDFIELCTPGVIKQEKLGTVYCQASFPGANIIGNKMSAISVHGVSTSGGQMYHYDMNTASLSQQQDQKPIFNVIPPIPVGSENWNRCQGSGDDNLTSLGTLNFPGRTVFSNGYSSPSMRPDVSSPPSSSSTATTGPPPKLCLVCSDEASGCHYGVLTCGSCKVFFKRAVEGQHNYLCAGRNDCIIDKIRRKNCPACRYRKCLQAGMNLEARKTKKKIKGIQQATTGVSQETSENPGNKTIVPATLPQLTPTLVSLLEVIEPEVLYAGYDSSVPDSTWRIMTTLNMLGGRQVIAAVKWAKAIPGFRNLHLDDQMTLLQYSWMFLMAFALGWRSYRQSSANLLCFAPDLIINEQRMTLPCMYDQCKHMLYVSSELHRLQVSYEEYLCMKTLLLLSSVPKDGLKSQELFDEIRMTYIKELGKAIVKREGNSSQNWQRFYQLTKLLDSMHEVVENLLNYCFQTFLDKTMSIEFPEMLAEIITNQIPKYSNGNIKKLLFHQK

GR [8] = biological target: T2, GR (Rattus norvegicus, UniProt P06536); settings: cited from earlier work
T2 sequence (P06536 1-795): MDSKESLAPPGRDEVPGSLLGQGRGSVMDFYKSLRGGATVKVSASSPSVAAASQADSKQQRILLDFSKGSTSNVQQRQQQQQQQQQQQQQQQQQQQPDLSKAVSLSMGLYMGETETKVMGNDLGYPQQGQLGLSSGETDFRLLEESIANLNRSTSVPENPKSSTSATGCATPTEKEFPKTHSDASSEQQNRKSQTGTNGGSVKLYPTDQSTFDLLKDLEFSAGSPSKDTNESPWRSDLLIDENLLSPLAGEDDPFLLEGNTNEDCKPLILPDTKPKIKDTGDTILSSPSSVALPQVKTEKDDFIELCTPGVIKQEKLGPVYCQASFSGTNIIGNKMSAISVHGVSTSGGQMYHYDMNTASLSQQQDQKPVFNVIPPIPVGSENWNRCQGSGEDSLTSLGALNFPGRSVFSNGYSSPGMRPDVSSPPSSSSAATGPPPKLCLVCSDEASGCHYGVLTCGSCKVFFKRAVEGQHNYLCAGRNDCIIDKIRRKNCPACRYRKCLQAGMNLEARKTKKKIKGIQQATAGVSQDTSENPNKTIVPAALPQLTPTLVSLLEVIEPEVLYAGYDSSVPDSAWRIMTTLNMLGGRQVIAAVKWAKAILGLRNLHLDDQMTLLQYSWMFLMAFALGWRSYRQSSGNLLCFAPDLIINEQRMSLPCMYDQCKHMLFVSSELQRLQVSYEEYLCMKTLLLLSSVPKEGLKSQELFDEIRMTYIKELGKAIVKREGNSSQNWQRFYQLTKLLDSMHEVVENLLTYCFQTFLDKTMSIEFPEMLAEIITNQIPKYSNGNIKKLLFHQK

decrease of the epidermal thickness (morphometric analyses) ([1]; eight-day topical treatment): 65%
skin atrophy (histological analysis) ([1]; eight-day topical treatment): severely induces a skin atrophy
transcription of the Kindlin-1 gene (nGRE) in dorsal skin ([1]; topical 1 nmole/cm^2, 8 days): strongly decreased
transcription of the REDD1 gene (+GRE) in dorsal skin ([1]; topical 1 nmole/cm^2, 8 days): significantly increased
decrease of the transcription of the WNT16 gene in tibia [2]: 50%
bone volume as compared to the total volume, tibia cortical bone ([2]; micro-CT): significantly decreased
decrease of the spleen weight [4]: more than 50%
cortex layers, most notably the fasciculata zone, of the adrenal glands (histology) (adrenal glands; s.c. 1 mg/kg daily): drastically decreased
transcripts of Cyp11a, Cyp11b1 and HSD3β genes in adrenal glands (corticosterone synthesis pathway) (adrenal glands; s.c. 1 mg/kg daily, q-RT-PCR): inhibited
glomerulosa zone of the adrenal cortex (histology) (adrenal glands): drastically decreased
transcript of the Cyp11b2 gene in adrenal glands (aldosterone synthesis pathway) (adrenal glands; q-RT-PCR): inhibited
plasmatic corticosterone level at 6 p.m. (adrenal glands; vs Vehicle): much lower
plasmatic corticosterone level at 10 a.m. (adrenal glands; vs Vehicle): much lower
lipid deposition in the liver (5% red oil staining) (liver; s.c. 1 mg/kg daily): marked lipid deposition
blood cholesterol and bile acids' levels (liver; 10 a.m.): clear increase
transcripts of fatty acid synthase (FASN) and Stearoyl-CoA desaturase 1 (SCD1) in liver (liver; q-RT-PCR): increase
Compound: C[C@@H]1C[C@H]2[C@@H]3CCC4=CC(=O)C=C[C@]4(C)[C@@]3(F)[C@@H](O)C[C@]2(C)[C@@]1(O)C(=O)CO [Dex, Dexamethasone, reference compound]
body weight, change from baseline [3]: net loss
fat mass / fat percentage, change from baseline ([3]; pDEXA): disproportional increase
lean mass / lean percentage, change from baseline ([3]; pDEXA): decrease
thymus apoptosis (thymus weight) [4]: no thymus was found in sixteen out of nineteen mice
blood glucose level after over-night fasting ([5]; s.c. 1 mg/kg daily): significantly higher
blood glucose level during two-hour IPGTT ([5]; glucose i.p. injection): significant higher
blood insulin level (hyperinsulinemia) ([6]; s.c. 1 mg/kg daily, 10 a.m.): hyperinsulinemia
phosphorylated insulin receptor substrate 1 (p-IRS1 S318) in liver extracts (western blot) [6]: decrease
phosphorylation of protein kinase B (p-AKT S473) in liver extracts (western blot) [6]: decreased
response to insulin in IPITT ([6]; insulin i.p. 0.75 U/kg): significant impaired response to insulin

Compound: C[C@@H]1C[C@H]2[C@@H]3CCC4=CC(=O)C=C[C@]4(C)[C@@]3(F)[C@@H](O)C[C@]2(C)[C@H]1C(=O)CC#N [RU24858]
dissociated profile (transrepression vs transactivation) in vitro (GR [7]): exhibit such an expected dissociated profile
dissociation upon administration in vivo (GR [8]): failed to confirm this dissociation
